Measurements published in ChEMBL document CHEMBL5725409, “Small molecule myristate inhibitors of Bcr-abl and methods of use” (2017).

Experiment: Kinase Assay: In vitro kinase assays were carried out by using recombinant murine c-abl containing SH3, SH2 and kinase domains (residues 46-531) and full length immunoprecipitated Bcr-abl. Recombinant abl was expressed in Sf9 insect cells and purified as described above. Bcr-abl immune complexes were obtained with Ab-3 anti-abl monoclonal antibody (Oncogene Science) from Ba/F3.p210 lysates as previously described. 1 μg of recombinant abl or immunoprecipitated Bcr-abl (from 3×10^6 cells) were incubated with various concentrations of test compound (0.1, 1 and 10 M) in kinase buffer (50 mM Tris-HCl pH 7.5, 10 mM MgCl2, […], 1 mM DTT, 0.015% Brij 35), 100 μM ATP and 1 μCi [γ-32P]-ATP for 30 min at 30° C. (Calbiochem buffer and protocol). The reaction was stopped by addition of Laemmli buffer and the proteins were resolved by SDS-PAGE in a 4-20% gel. The phosphoproteins were visualized by autoradiography and the autophosphorylation quantitated using a phosphoimager (STORM, Molecular Devices).

| Structure (SMILES) | IC50 [nM] |
| --- | --- |
| COc1cc(-c2cc(Nc3ccc(OC(F)(F)F)cc3)ncn2)co1 | 940 |
| O=C(NCCN1CCOCC1)c1cc2c(Nc3ccc(OC(F)(F)F)cc3)ncnc2s1 | > 10000 |
| O=C(NC(=O)c1cc2c(Nc3ccc(OC(F)(F)F)cc3)ncnc2s1)c1cccc(C(F)(F)F)c1 | 1440 |
